Experiments:
[1] = target: HCV RNA dependent RNA polymerase (RdRp), NS5B (Hepatitis C virus genotype 1b, UniProt P26663); assay: Incorporation of phosphonate ATP analogs into RNA product by HCV RdRp (gel, extension of [33P]GpC); assay type: biochemical; settings: for extension of [33P]GpC by HCV RdRp (incorporation into RNA product): 1 mM nucleotide, 10 μM [33P]GpC, 10 μM 5′-AAAAAAAUGC-3′ template, 2.5 μM HCV RdRp, FIG. 8
Procedure: Among other nucleotide analogs (data not shown), two exemplary phosphonate analogs of ATP, 5′-deoxy-5′-phosphonate (5′d-ATP) and 5′-deoxy-5′-methylene phosphonate (5′d-CH2-ATP), were tested for inhibition and/or incorporation into an RNA product by the HCV RNA dependent RNA polymerase (RdRp). The incorporation reactions included 1 mM of the phosphonate analog or ATP, 10 μM of [^33P]GpC, 10 μM of 5′-AAAAAAAUGC-3′, and 2.5 μM of HCV RdRp in a buffer that contained 50 mM Hepes, pH 7.3, 10 mM DTT, and 5 mM MgCl2. The RNA products were resolved on a 25% polyacrylamide-7M urea-TBE gel. […] The incorporation of 5′d-CH2-ATP is less efficient than that of ATP by 10-fold. To look for further elongation after incorporation of ATP or 5′d-CH2-ATP, the same experiment was performed in the presence of additional UTP (1 mM).
Exemplary results of such tests are depicted in the autoradiograph of FIG. 8 showing RNA products from incorporations of ATP and phosphonate analogs of ATP by HCV RdRp. Each reaction contained 2.5 μM of RdRp, 10 μM of [^33P]GpC, 10 μM template, and the following nucleotides (1 mM): lane 1, none; lane 2, ATP; lane 3,5′-deoxy-5′-phosphonate ATP; lane 4,5′-deoxy-5′-methylene phosphonate ATP; lane 5, ATP and UTP; lane 6,5′-deoxy-5′-phosphonate ATP and UTP; lane 7,5′-deoxy-5′-methylene phosphonate ATP and UTP. The reaction products were resolved on a 25% polyacrylamide-7 M urea-TBE gel and the gel was scanned on a PhosporImager.

[2] = target: E. coli RNA polymerase (Escherichia coli, UniProt P0A8T7+P0A8V2); settings: Savochkina et al. Mol. Biol. (Mosk) 1989; cited from earlier work
Sequence of E. coli RNA polymerase (P0A8T7 whole entry): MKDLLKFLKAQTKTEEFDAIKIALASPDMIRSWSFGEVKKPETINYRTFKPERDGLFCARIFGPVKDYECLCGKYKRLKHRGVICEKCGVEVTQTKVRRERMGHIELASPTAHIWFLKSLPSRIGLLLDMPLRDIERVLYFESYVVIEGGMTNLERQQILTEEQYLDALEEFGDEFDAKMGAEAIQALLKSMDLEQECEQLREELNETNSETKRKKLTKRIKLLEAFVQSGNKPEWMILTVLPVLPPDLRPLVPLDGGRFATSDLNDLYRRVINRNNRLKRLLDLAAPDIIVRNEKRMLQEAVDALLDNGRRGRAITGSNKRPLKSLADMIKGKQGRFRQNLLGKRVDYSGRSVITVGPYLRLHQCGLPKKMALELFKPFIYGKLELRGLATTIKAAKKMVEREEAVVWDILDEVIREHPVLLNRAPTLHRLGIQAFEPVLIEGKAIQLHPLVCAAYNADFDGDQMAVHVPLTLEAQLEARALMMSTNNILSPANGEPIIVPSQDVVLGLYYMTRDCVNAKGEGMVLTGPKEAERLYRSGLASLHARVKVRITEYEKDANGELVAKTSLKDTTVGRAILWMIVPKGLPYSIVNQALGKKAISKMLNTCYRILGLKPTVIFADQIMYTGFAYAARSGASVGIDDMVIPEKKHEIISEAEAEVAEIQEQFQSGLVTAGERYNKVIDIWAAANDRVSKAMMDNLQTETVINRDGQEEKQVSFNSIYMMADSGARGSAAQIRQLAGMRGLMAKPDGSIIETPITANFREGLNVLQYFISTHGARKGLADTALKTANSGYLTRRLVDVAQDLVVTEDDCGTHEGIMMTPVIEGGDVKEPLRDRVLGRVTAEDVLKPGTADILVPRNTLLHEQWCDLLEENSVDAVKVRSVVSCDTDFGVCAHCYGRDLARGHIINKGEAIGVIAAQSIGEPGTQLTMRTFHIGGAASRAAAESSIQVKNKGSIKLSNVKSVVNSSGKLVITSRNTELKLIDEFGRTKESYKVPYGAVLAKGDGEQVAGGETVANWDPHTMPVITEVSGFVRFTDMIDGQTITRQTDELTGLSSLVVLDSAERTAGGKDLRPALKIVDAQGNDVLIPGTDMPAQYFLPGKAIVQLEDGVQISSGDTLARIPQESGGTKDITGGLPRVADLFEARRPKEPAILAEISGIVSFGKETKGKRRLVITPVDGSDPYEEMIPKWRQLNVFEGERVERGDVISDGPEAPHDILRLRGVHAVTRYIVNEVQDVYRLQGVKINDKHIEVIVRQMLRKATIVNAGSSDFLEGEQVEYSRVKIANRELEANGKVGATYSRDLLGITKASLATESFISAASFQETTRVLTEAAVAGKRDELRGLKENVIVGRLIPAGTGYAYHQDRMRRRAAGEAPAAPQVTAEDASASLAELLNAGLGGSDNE
Sequence of E. coli RNA polymerase (P0A8V2 whole entry): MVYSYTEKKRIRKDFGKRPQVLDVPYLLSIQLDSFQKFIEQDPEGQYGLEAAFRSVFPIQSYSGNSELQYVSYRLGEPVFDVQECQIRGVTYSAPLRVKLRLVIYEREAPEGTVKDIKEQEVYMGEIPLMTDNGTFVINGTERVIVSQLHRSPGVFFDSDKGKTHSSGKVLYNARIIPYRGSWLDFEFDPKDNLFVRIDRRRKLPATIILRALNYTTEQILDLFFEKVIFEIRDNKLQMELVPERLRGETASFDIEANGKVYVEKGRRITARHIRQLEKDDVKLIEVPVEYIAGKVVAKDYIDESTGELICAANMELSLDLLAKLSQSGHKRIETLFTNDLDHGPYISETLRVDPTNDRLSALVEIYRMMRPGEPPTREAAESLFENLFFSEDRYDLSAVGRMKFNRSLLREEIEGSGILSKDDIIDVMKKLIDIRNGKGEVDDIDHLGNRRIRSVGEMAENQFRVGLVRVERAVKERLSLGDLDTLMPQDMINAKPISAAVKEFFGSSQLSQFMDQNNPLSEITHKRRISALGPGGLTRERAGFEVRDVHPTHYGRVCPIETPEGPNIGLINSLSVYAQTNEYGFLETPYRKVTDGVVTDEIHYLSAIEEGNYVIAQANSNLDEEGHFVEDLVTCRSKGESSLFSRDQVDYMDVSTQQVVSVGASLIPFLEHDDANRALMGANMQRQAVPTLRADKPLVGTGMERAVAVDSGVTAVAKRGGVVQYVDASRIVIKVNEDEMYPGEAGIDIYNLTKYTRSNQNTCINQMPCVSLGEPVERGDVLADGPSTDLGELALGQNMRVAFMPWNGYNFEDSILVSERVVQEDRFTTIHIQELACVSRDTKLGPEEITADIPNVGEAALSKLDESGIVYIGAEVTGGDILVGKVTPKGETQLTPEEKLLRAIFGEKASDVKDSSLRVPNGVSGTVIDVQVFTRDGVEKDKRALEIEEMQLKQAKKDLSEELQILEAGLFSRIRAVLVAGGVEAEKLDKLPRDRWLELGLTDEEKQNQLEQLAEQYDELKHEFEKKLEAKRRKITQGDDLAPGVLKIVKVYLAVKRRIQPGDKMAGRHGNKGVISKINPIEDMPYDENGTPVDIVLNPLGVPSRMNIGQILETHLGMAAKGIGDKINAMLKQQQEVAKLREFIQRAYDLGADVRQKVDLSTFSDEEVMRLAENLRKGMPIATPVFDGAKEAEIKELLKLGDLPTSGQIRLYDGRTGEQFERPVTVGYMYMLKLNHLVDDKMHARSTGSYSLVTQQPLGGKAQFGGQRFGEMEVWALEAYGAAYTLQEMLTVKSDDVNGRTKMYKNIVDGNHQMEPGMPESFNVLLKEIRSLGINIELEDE
Sequence of E. coli RNA polymerase (P0A7Z4 whole entry, further chain): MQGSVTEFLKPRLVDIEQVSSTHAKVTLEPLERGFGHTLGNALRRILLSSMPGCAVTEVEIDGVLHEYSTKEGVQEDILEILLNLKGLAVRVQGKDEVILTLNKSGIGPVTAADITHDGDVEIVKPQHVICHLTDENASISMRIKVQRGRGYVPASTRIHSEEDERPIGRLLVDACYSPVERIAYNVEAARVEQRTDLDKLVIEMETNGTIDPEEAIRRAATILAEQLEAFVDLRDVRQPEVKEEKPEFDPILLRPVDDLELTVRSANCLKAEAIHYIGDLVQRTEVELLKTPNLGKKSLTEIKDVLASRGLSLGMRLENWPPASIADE
Sequence of E. coli RNA polymerase (P0A800 whole entry, further chain): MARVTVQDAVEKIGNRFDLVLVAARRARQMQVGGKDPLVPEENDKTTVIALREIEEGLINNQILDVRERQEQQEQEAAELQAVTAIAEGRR

Sequence of HCV RNA dependent RNA polymerase (RdRp), NS5B (P26663 2420-3010): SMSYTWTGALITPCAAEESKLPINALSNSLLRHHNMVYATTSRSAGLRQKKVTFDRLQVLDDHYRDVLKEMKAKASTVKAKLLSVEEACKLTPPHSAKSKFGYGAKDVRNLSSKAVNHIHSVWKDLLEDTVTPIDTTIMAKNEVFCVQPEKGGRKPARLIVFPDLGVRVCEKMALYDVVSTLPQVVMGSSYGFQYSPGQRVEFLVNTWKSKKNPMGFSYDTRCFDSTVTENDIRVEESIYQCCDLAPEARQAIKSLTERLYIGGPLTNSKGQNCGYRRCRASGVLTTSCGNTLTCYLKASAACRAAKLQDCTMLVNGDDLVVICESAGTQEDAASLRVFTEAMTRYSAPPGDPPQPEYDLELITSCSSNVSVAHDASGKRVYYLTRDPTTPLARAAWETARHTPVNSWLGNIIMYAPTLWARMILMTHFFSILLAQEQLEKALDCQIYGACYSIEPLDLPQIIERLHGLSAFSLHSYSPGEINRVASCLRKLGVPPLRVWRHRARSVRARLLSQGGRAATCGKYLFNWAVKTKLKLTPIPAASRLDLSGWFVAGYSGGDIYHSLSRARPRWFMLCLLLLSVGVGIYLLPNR

Compound | extension of [33P]GpC by HCV RdRp (incorporation into RNA product) [1] | further elongation by UTP after incorporation ([1]; same experiment with additional UTP (1 mM)) | effect on RNA synthesis by E. coli RNA polymerase [2]
Nc1ncnc2c1ncn2[C@@H]1O[C@H](CP(=O)(O)OP(=O)(O)OP(=O)(O)O)[C@@H](O)[C@H]1O [5′d-ATP] | no extension |  | 
Nc1ncnc2c1ncn2[C@@H]1O[C@H](COP(=O)(O)OP(=O)(O)OP(=O)(O)O)[C@@H](O)[C@H]1O [ATP] | extension of [^33P]GpC by HCV RdRp was observed | Elongation products by UTP were seen | 
O=c1ccn([C@@H]2O[C@@H](CP(=O)(O)OP(=O)(O)OP(=O)(O)O)[C@@H](O)[C@H]2O)c(=O)[nH]1 [Phosphonate (5-deoxy) UTP] |  |  | pseudoterminator of RNA synthesis

From patent US7247621B2, “Antiviral phosphonate compounds and methods therefor” (Valeant Research & Development, priority 2002, dated 2007)
